Measurements taken from patent US8975286B2, “Ether benzotriazole derivatives” (Merck Sharp & Dohme Corp., priority 2009, dated 2015).
pEC50: −log10 of the molar value.

target: T1, recombinant human mGluR2 (Homo sapiens, UniProt Q14416); assay: FLIPR Ca2+ mobilization assay, potentiation of glutamate (EC20) response; type: cell-based; settings: CHO dhfr- cells expressing human mGluR2 and Gα16; potentiation with EC20 glutamate (900 nM); read-out: Representative FLIPR EC50 Values
T1 construct: expressed in transfected cells
T1 sequence (Q14416 19-872): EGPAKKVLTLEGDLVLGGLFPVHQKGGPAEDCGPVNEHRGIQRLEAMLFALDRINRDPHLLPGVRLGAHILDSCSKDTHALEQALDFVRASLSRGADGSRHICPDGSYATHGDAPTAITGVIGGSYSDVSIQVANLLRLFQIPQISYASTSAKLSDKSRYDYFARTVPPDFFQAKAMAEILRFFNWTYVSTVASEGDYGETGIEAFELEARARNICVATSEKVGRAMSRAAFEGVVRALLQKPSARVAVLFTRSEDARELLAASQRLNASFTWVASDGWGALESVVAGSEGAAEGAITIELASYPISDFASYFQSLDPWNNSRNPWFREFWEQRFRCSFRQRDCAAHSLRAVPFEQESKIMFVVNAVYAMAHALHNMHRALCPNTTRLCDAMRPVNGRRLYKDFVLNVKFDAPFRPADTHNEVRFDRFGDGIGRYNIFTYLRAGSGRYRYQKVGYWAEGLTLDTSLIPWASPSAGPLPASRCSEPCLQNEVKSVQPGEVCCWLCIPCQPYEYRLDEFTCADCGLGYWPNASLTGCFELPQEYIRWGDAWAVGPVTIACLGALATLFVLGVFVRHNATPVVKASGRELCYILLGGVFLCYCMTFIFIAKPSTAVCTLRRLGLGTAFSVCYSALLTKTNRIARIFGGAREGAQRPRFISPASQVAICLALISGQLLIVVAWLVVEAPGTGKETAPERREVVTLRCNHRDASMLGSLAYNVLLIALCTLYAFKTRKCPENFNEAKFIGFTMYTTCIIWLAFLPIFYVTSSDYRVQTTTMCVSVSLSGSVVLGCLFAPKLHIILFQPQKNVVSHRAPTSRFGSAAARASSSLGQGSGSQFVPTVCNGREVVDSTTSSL
Description: Potencies are determined as follows. The compounds of the present invention may be tested in a fluorescence laser imaging plate reader (FLIPR) based assay. This assay is a common functional assay to monitor Ca^2+ mobilization in whole cells expressing recombinant receptor coupled with a promiscuous G-protein. CHO dhfr− cells stably expressing recombinant human mGluR2 and Gα16 loaded with Fluo-4 AM (Invitrogen, Carlsbad Calif.) are treated with varying concentrations of compounds and the Ca^2+ response is monitored on a FLIPR384 (Molecular Devices, Sunnydale Calif.) for agonist activity. The potentiation response is monitored after a subsequent addition of an EC20 concentration of glutamate (900 nM). The maximum calcium response at each concentration of compound for agonism or potentiation are plotted as dose responses curves fitted with a four parameters logistic equation giving EC50 and Hill coefficient using the iterative non linear curve fitting software program.

In order of falling pEC50:
1. CC1CN(Cc2cc(F)cnc2Oc2ccc3c(nnn3CC3CC3)c2Br)CCN1S(C)(=O)=O (stereo in doubt) [Example 290, 4-bromo-1-(cyclopropylmethyl)-5-[(5-fluoro-3-{[(3R)-3-methyl-4-(methylsulfonyl)piperazin-1-yl]methyl}pyridin-2-yl)oxy]-1H-benzotriazole]  8.70
2. CS(=O)(=O)N1CCN(Cc2cc(Cl)cnc2Oc2ccc3c(nnn3CC3CC3)c2Br)CC1 [Example 198, 4-bromo-5-[(5-chloro-3-{[4-(methylsulfonyl)piperazin-1-yl]methyl}pyridin-2-yl)oxy]-1-(cyclopropylmethyl)-1H-benzotriazole]  8.52
3. CC(C)(C)C(O)c1cccnc1Oc1ccc2c(nnn2CC2CC2)c1Br (centres unmarked) [Example 72, 1-(2-{[4-bromo-1-(cyclopropylmethyl)-1H-benzotriazol-5-yl]oxy}pyridin-3-yl)-2,2-dimethylpropan-1-ol]  8.30
4. Clc1cnc(Oc2ccc3c(nnn3CC3CC3)c2Br)c(CN2CCN(c3nccs3)CC2)c1 [Example 320, 4-bromo-5-[(5-chloro-3-{[4-(1,3-thiazol-2-yl)piperazin-1-yl]methyl}pyridin-2-yl)oxy]-1-(cyclopropylmethyl)-1H-benzotriazole]  8.30
5. CC(C)(C)C(O)c1cccnc1Oc1ccc2c(nnn2CC2CC2)c1Br (centres unmarked) [Example 91, 1-(2-{[4-bromo-1-(cyclopropylmethyl)-1H-benzotriazol-5-yl]oxy}pyridin-3-yl)-2,2-dimethylpropan-1-ol]  8.22
6. CS(=O)(=O)NC1CCN(Cc2cc(Cl)cnc2Oc2ccc3c(nnn3CC3CC3)c2Br)CC1 [Example 365, N-{1-[(2-{[4-bromo-1-(cyclopropylmethyl)-1H-benzotriazol-5-yl]oxy}-5-chloropyridin-3-yl)methyl]piperidin-4-yl}methanesulfonamide]  8.10
7. Clc1cnc(Oc2ccc3c(nnn3CC3CC3)c2Br)c(CN2CC(n3cccn3)C2)c1 [Example 384, 4-bromo-5-[(5-chloro-3-{[3-(1H-pyrazol-1-yl)azetidin-1-yl]methyl}pyridin-2-yl)oxy]-1-(cyclopropylmethyl)-1H-benzotriazole]  8.10
8. CS(=O)(=O)N1CCCN(Cc2cc(Cl)cnc2Oc2ccc3c(nnn3CC3CC3)c2Br)CC1 [Example 280, 4-bromo-5-[(5-chloro-3-{[4-(methylsulfonyl)-1,4-diazepan-1-yl]methyl}pyridin-2-yl)oxy]-1-(cyclopropylmethyl)-1H-benzotriazole]  8.10
9. OC(c1cccnc1Oc1ccc2c(nnn2CC2CC2)c1Br)C1CC1 (centres unmarked) [Example 93, (2-{[4-bromo-1-(cyclopropylmethyl)-1H-benzotriazol-5-yl]oxy}pyridin-3-yl)(cyclopropyl)methanol]  7.96
10. OCC1C2CN(Cc3cc(Cl)cnc3Oc3ccc4c(nnn4CC4CC4)c3Br)CC12 (centres unmarked) [Example 357, {3-[(2-{[4-bromo-1-(cyclopropylmethyl)-1H-benzotriazol-5-yl]oxy}-5-chloropyridin-3-yl)methyl]-3-azabicyclo[3.1.0]hex-6-yl}methanol]  7.89
11. CC(C)(C)OC(=O)N1C[C@@H]2C[C@H]1CN2Cc1cc(Cl)cnc1Oc1ccc2c(nnn2CC2CC2)c1Br [Example 297, tert-butyl(1S,4S)-5-[(2-{[4-bromo-1-(cyclopropylmethyl)-1H-benzotriazol-5-yl]oxy}-5-chloropyridin-3-yl)methyl]-2,5-diazabicyclo[2.2.1] heptane-2-carboxylate]  7.72
12. OC(c1cccnc1Oc1ccc2c(nnn2CC2CC2)c1C(F)(F)F)C1CC1 (centres unmarked) [Example 421, cyclopropyl(2-{[1-(cyclopropylmethyl)-4-(trifluoromethyl)-1H-benzotriazol-5-yl]oxy}pyridin-3-yl)methanol]  7.70
13. CCC(O)c1cccnc1Oc1ccc2c(nnn2CC(C)(C)C)c1Br (centres unmarked) [Example 184, 1-(2-{[4-bromo-1-(2,2-dimethylpropyl)-1H-benzotriazol-5-yl]oxy}pyridin-3-yl)propan-1-ol]  7.68
14. CC(C)(C)Cn1nnc2c(Br)c(Oc3cccc(Br)n3)ccc21 [Example 148, 4-bromo-5-[(6-bromopyridin-2-yl)oxy]-1-(2,2-dimethylpropyl)-1H-benzotriazole]  7.64
15. FC1(F)CCN(Cc2cccnc2Oc2ccc3c(nnn3CC3CC3)c2Br)CC1 [Example 194, 4-Bromo-1-(cyclopropylmethyl)-5-({3-[(4,4-difluoropiperidin-1-yl)methyl]pyridin-2-yl}oxy)-1H-benzotriazole]  7.49
16. FC1(F)CCCN(Cc2cccnc2Oc2ccc3c(nnn3CC3CC3)c2Br)C1 [Example 204, 4-bromo-1-(cyclopropylmethyl)-5-({3-[(3,3-difluoropiperidin-1-yl)methyl]pyridin-2-yl}oxy)-1H-benzotriazole]  7.41
17. FC(F)(F)CNCc1cccnc1Oc1ccc2c(nnn2CC2CC2)c1Br [Example 213, N-[(2-{[4-bromo-1-(cyclopropylmethyl)-1H-benzotriazol-5-yl]oxy}pyridin-3-yl)methyl]-2,2,2-trifluoroethanamine]  7.40
18. CC(O)c1cccnc1Oc1ccc2c(nnn2CC2CC2)c1C(F)(F)F (racemic) [Example 418, (±)-1-(2-{[1-(cyclopropylmethyl)-4-(trifluoromethyl)-1H-benzotriazol-5-yl]oxy}pyridin-3-yl)ethanol]  7.31
19. CC(=O)N1CCCN(Cc2cc(F)cnc2Oc2ccc3c(nnn3CC3CC3)c2Br)CC1 [Example 253, 5-({3-[(4-acetyl-1,4-diazepan-1-yl)methyl]-5-fluoropyridin-2-yl}oxy)-4-bromo-1-(cyclopropylmethyl)-1H-benzotriazole]  7.28
20. O=C(NCc1cc(F)cnc1Oc1ccc2c(nnn2CC2CC2)c1Br)c1ccon1 [Example 284, N-[(2-{[4-bromo-1-(cyclopropylmethyl)-1H-benzotriazol-5-yl]oxy}-5-fluoropyridin-3-yl)methyl]isoxazole-3-carboxamide]  7.19
21. CC(C)(C)Cn1nnc2c(Br)c(Oc3ncccc3C(F)(F)F)ccc21 [Example 111, 4-bromo-1-(2,2-dimethylpropyl)-5-{[3-(trifluoromethyl)pyridin-2-yl]oxy}-1H-benzotriazole]  7.19
22. Cc1cccnc1Oc1ccc2c(nnn2CC(C)(C)C)c1Br [Example 122, 4-bromo-1-(2,2-dimethylpropyl)-5-[(3-methylpyridin-2-yl)oxy]-1H-benzotriazole]  7.10
23. COCC(OC)c1cccnc1Oc1ccc2c(nnn2CC2CC2)c1Br (centres unmarked) [Example 55, 4-bromo-1-(cyclopropylmethyl)-5-{[3-(1,2-dimethoxyethyl)pyridin-2-yl]oxy}-1H-benzotriazole]  7.02
24. CC(O)c1ncccc1Oc1ccc2c(nnn2CC(C)(C)C)c1Br (centres unmarked) [Example 151, 1-(3-{[4-bromo-1-(2,2-dimethylpropyl)-1H-benzotriazol-5-yl]oxy}pyridin-2-yl)ethanol]  6.91
25. FCC1CCN(Cc2cccnc2Oc2ccc3c(nnn3CC3CC3)c2Br)C1 (centres unmarked) [Example 215, 4-bromo-1-(cyclopropylmethyl)-5-[(3-{[3-(fluoromethyl)pyrrolidin-1-yl]methyl}pyridin-2-yl)oxy]-1H-benzotriazole]  6.89
26. CC(C)(C)Cn1nnc2c(Br)c(Oc3ccncc3)ccc21 [compound 423, 4-bromo-1-(2,2-dimethylpropyl)-5-pyridin-4-yloxy-1H-benzotriazole]  6.85
27. OC1(c2cccnc2Oc2ccc3c(nnn3CC3CC3)c2Cl)CCC(C(F)(F)F)CC1 (centres unmarked) [Example 411, 1-(2-{[4-chloro-1-(cyclopropylmethyl)-1H-benzotriazol-5-yl]oxy}pyridin-3-yl)-4-(trifluoromethyl) cyclohexanol]  6.59
28. Cn1cc(-c2cnc(Oc3ccc4c(nnn4CC(C)(C)C)c3Br)c(C#N)c2)cn1 [Example 169, 2-{[4-bromo-1-(2,2-dimethylpropyl)-1H-benzotriazol-5-yl]oxy}-5-(1-methyl-1H-pyrazol-4-yl)pyridine-3-carbonitrile]  6.37
29. OC(CF)(CF)c1cccnc1Oc1ccc2c(nnn2CC2CC2)c1Cl [Example 398, 2-(2-{[4-chloro-1-(cyclopropylmethyl)-1H-benzotriazol-5-yl]oxy}pyridin-3-yl)-1,3-difluoropropan-2-ol]  6.25
30. CC(C)(O)c1cccnc1Oc1ccc2c(nnn2CC2CC2)c1Cl [Example 396, 2-(2-{[4-chloro-1-(cyclopropylmethyl)-1H-benzotriazol-5-yl]oxy}pyridin-3-yl)propan-2-ol]  6.25
31. CC1(O)CCN(Cc2cccnc2Oc2ccc3c(nnn3CC3CC3)c2Br)CC1 [Example 227, 1-[(2-{[4-bromo-1-(cyclopropylmethyl)-1H-benzotriazol-5-yl]oxy}pyridin-3-yl)methyl]-4-methylpiperidin-4-ol]  6.15
32. OCC(O)c1cccnc1Oc1ccc2c(nnn2CC2CC2)c1Br (centres unmarked) [Example 52, 1-(2-{[4-bromo-1-(cyclopropylmethyl)-1H-benzotriazol-5-yl]oxy}pyridin-3-yl)ethane-1,2-diol]  6.09
